Target: T1, Eno1 (Candida albicans, UniProt P30575)
T1 sequence (P30575 1-440): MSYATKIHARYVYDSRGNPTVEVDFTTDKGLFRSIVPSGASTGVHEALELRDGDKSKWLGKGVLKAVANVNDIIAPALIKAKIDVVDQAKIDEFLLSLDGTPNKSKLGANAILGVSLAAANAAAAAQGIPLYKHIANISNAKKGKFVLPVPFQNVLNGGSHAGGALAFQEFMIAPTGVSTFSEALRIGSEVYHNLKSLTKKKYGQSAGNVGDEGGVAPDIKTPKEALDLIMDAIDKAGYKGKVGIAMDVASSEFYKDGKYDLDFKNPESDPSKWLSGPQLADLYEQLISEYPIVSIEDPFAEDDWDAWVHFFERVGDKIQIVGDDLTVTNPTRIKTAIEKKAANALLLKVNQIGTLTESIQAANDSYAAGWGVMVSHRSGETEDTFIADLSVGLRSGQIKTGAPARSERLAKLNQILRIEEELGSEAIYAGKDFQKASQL
Assay: in vitro enolase assay, […] compound, absorbance at […] nm, […] Eno1
Type: biochemical

SMILES: Nc1ccc(-c2cc(=O)c3c(O)c(O)c(O)cc3o2)cc1 [B5, 2-(4-aminophenyl)-5,6,7-trihydroxy-4H-chromen-4-one]
- in vitro enolase assay, 200 μM compound, absorbance at 240 nm, 30 nM Eno1: B5 exhibited some inhibitory ability in in vitro enzyme inhibition assay, although it was weaker than BE

— paper PMC10489750, “Exploration of Baicalein-Core Derivatives as Potent Antifungal Agents: SAR and Mechanism Insights” (Molecules, 2023)
